Experimental data reported in US20230175029A1, “ENZYME CASCADES BASED ON SUCROSE SYNTHASE AND PYROPHO[…] CONVERSION OF ADP TO ATP” (RHEINISCH-WE[…]-NISCHE HOCHSCHULE (RWTH) AACHEN, priority 2020, published 2023).

Columns and labels:
EcAGPase [1] = target: T1, EcAGPase (Escherichia coli, UniProt P0A6V1); test: Influence of Fru-1,6-P2 concentration on activity of EcAGPase; format: biochemical, E. coli; design: His6; made in house; host or cells: E. coli BL21 (DE3), vector pET22b; conditions: for EcAGPase activity: 3 mM ADP-Glc, 3 mM PPi, pH 8, 37° C.
Protocol: Fru-1,6-P2 was used as an activator for EcAGPase. It is Fru-1,6-P2 a relatively expensive compound and its use in the EcAGPase reaction should be reduced as much as possible. Therefore, the activity of EcAGPase was investigated for different Fru-1,6-P2 concentrations to determine a minimum concentration of the activator.
The experiment included 3.9 μg/mL EcAGPase, 3 mM ADP-Glc, 3 mM PPi, 10 mM MgCl2 and Fru-1,6-P2 at concentrations ranging from 0.1 mM to 1 mM, as well as a control reaction without Fru-1,6-P2.

EcAGPase [2] = target: T1, EcAGPase; test: Effect of Glc-1-P on ATP synthesis activity of EcAGPase; format: biochemical, E. coli; design: His6; made in house; host or cells: E. coli BL21 (DE3), vector pET22b; conditions: 3 mM ADP-Glc, 3 mM PPi
Description: The EcAGPase prefers the ADP-Glc synthesis. Thus, the accumulation of Glc-1-P negatively affects the reaction equilibrium for ATP synthesis. Therefore, the effect of Glc-1-P on the ATP synthesis activity of EcAGPase was investigated.

EcAGPase [3] = target: T1, EcAGPase; conditions: 2.5 mM ADP-Glc, 1 mM Fru-1,6-P2, pH 8, 37° C.
Protocol: The influence of PPi concentrations on the ATP synthesis activity of the EcAGPase used was investigated.
The experiment included 4.35 μg/mL EcAGPase, 2.5 mM ADP-Glc, 10 mM MgCl2, 1 mM Fru-1,6-P2 and PPi, at concentrations ranging from 0.75 mM to 10 mM, and a control reaction without PPi. ATP synthesis was performed in 600 μL of 100 mM HEPES buffer, pH 8 at 37° C. for 12 min. The synthesis was stopped at the respective measurement points with 28 mM SDS (final concentration 7 mM) and the analysis of the nucleotides (ADP-Glc, AMP, ADP, ATP) was performed by multiplex capillary electrophoresis (internal standards (final concentrations): 1 mM para-aminobenzoic acid and 1 mM 4-aminophthalic acid) and the analytes were detected at 254 nm.

T1 sequence (P0A6V1 whole entry): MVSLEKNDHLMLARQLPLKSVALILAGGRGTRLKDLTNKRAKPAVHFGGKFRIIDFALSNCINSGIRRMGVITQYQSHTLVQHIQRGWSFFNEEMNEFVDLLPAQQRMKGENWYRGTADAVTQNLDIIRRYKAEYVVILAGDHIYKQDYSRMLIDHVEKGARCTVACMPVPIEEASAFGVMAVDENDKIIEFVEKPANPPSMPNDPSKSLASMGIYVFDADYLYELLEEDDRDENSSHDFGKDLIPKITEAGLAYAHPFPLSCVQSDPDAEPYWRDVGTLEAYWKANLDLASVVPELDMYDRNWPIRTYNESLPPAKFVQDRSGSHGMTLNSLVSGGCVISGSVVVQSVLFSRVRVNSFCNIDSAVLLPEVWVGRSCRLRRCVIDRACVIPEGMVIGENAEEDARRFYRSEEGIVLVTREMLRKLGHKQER

O=C(COP(=O)(O)O)[C@@H](O)[C@H](O)[C@H](O)COP(=O)(O)O [Fru-1,6-P2, fructose-1,6-bisphosphate]
EcAGPase activity (EcAGPase [1]; 0.25 mM Fru-1,6-P2): 20 U/mg
EcAGPase activity, fold higher than without activator (EcAGPase [1]; 0.5 mM Fru-1,6-P2): 12 fold
EcAGPase activity (EcAGPase [1]; 0.5 mM Fru-1,6-P2): 60 U/mg

O=P(O)(O)O[C@H]1O[C@H](CO)[C@@H](O)[C@H](O)[C@H]1O [Glc-1-P, glucose-1-phosphate]
activity of the enzyme relative to activity without addition of Glc-1-P (EcAGPase [2]; 1 mM Glc-1-P, 0.5 mM Fru-1,6-P2): 71%
IC50 (EcAGPase [2]; 0.5 mM Fru-1,6-P2, pH 8, 37° C.): 1780 µM
residual activity (EcAGPase [2]; 5 mM Glc-1-P, 0.5 mM Fru-1,6-P2): 27%

O=P(O)(O)OP(=O)(O)O [PPi, inorganic pyrophosphate]
PPi concentration at which EcAGPase shows a reduction in specific activity (EcAGPase [3]): above 3 mM
specific activity of EcAGPase (EcAGPase [3]; 7 mM PPi): 0.6 U/mg
